Experimental data reported in PubChem BioAssay AID652239 (Broad Institute, 2013).
Several values for one entry are separate records, joined by “and”; a condition that tells them apart may be missing. Equal values may be shown once. Activity calls are given as the source filed them. The rule behind the calls is not given here.

test system: not listed separately; assay: Cholera quorum inducers, light production in absence of autoinducers, BH1578 strain, dry powder dose (AID 652239); details: V. cholerae BH1578 lux luminescence induction, 6 h; at 35 µM (top of the series)

SMILES | activation
O=C(CC1CCCCC1)Nc1nnc(-c2ccc3c(c2)CCCC3)o1 | 0.052% (inactive)

same assay, conditions: V. cholerae BH1578 lux luminescence induction, 6 h; at 80 µM (top of the series)

SMILES | activation
O=c1ncn(-c2ccc(Cl)cc2)c2ccccc12 | 0.028% (inactive)
O=C1C(=O)N(Cc2cccc(Cl)c2)c2ccccc21 | 0.06% (inactive)
O=C(Nc1nnc(-c2ccc(Cl)cc2)o1)C1CCCCC1 | -0.011% (inactive)
O=c1[nH]cnc2ccccc12 | 0.09% (inactive)
CCOC(=O)c1ccccc1Nc1cccc(Cl)c1 | 0.006% (inactive)
O=c1ncn(-c2cccc(Cl)c2)c2cc(Cl)ccc12 | 0.074% (inactive)
Cc1ccc2cc3c(NC(=O)c4ccoc4)nn(C)c3nc2c1 | 0.029% (inactive)
NC(=O)c1ccccc1Nc1ccccc1 | 0.161% (inactive)
O=c1ncn(-c2cccc(Cl)c2)c2ccc(Cl)cc12 | 8.89% (inactive)
COc1cccc(-n2cnc(=O)c3ccccc32)c1 | 2.59% (inactive)
O=c1nc(-c2ccccc2)n(-c2cccc(Cl)c2)c2ccccc12 | -0.006% (inactive)
O=C(Nc1nnc(-c2ccc3c(c2)OCCO3)o1)C1CCCC1 | 1.99% (inactive)
Cc1ccc2cc3c(NC(=O)C4CCCC4)nn(C)c3nc2c1 | 11.2% (inactive)
CCC(C)(C)C(=O)Nc1nnc(-c2ccc3c(c2)OCCO3)o1 | -0.001% (inactive)
O=c1ncn(-c2ccc(Cl)c(Cl)c2)c2ccccc12 | 0.032% (inactive)
O=C1C(=O)N(Cc2ccccc2Cl)c2ccccc21 | 0.075% (inactive)
O=C(CSc1nc2c(c(=O)[nH]1)CCCC2)NC1CCCCC1 | 0.193% (inactive)
O=c1ncn(-c2ccc(F)c(Cl)c2)c2ccccc12 | 9.82% (inactive)
O=c1nc(Cc2ccccc2)n(-c2cccc(Cl)c2)c2ccccc12 | 3.07% (inactive)

SMILES | activation
COc1ccc(-n2cnc(=O)c3ccccc32)cc1Cl | 0.3% (inactive)
O=c1ncn(-c2ccccc2Cl)c2ccccc12 | 1.17% (inactive)
Cc1ccc(-n2cnc(=O)c3ccccc32)cc1Cl | 0.07% (inactive)
O=C(Nc1nnc(-c2cccc(Cl)c2)o1)C1CCCCC1 | 0.061% (inactive)
Cc1nc(=O)c2ccccc2n1-c1cccc(Cl)c1 | 18.8% (inactive)
O=c1ncn(Cc2ccc(Cl)cc2)c2ccccc12 | 0.451% (inactive)
NC(=O)c1ccccc1Nc1cccc(Cl)c1 | 0.057% (inactive)
Cc1ccc2c(=O)ncn(-c3cccc(Cl)c3)c2c1 | 0.04% (inactive)
COc1ccc2c(=O)ncn(-c3cccc(Cl)c3)c2c1 | 0.036% (inactive)
Cn1cnc(=O)c2ccccc21 | 0.029% (inactive)
CCc1nc(=O)c2ccccc2n1-c1cccc(Cl)c1 | 0.079% (inactive)
O=C(O)c1ccccc1Nc1cccc(Cl)c1 | 0.008% (inactive)
O=C(CSc1nc2ccccc2c(=O)[nH]1)NC1CCCCC1 | 0.004% (inactive)
Cc1ccc2c(c1)c(=O)ncn2-c1cccc(Cl)c1 | 6.29% (inactive)
O=C(Nc1nnc(-c2ccc3c(c2)CCCC3)o1)C1CCC1 | 0% (inactive)
O=c1ncn(-c2cccc(Cl)c2)c2cccc(Cl)c12 | 0.031% (inactive)
O=C(CC1CCCCC1)Nc1nnc(-c2cccnc2)o1 | -0.004% (inactive)
COC(=O)c1ccccc1Nc1cccc(Cl)c1 | 0.61% (inactive)

same assay, conditions: V. cholerae BH1578 lux luminescence induction, 6 h; at 100 µM (top of the series)

SMILES | activation
Cn1ccc(NC(=O)c2ccco2)n1 | 0.036% (inactive)
Cc1ccc2cc3c(NC(=O)c4cc5ccccc5o4)nn(C)c3nc2c1 | 0.014% (inactive)
COc1ccc(-c2nnc(NC(=O)C3CCCCC3)o2)cc1 | 17.9% (inactive)
c1ccc(CNc2nnc(-c3ccc4c(c3)OCCO4)o2)cc1 | 0.001% (inactive)
O=C(Nc1nnc(C2CCCC2)o1)C1CCCCC1 | -0.003% (inactive)
O=C(Nc1nnc(-c2cccnc2)o1)C1CCC1 | -0.001% (inactive)
CCn1nnnc1N | -0.013% (inactive)
CCn1nnnc1/N=C/c1ccc(N2CCCCC2)cc1 | 0.106% (inactive)
C(=N\c1nnc(-c2ccc3c(c2)OCCO3)o1)/c1ccccc1 | 0.004% (inactive)
O=C(Nc1nnc(-c2ccncc2)o1)C1CCC1 | 0.028% (inactive)
Cn1nc(NC(=O)c2ccco2)c2cc3ccc(C(C)(C)C)cc3nc21 | 0% (inactive)
COc1ccc(S(=O)(=O)Nc2nnc(-c3ccc4c(c3)OCCO4)o2)cc1 | 0.003% (inactive)
COc1cccc(-c2nnc(NC(=O)C3CCCCC3)o2)c1 | -0.002% (inactive)
CC(C)c1ccc2cc3c(NC(=O)c4ccco4)nn(C)c3nc2c1 | 0.153% (inactive)
CCn1nnnc1NC(C)c1ccc(N2CCCC2)cc1 (stereo not drawn) | 11.5% (inactive)
O=C(Nc1nnc(-c2ccc3c(c2)OCCO3)o1)C1CC1 | 0.001% (inactive)
CC(C)(C)OC(=O)N1CCC(C(=O)Nc2nnc(-c3ccc4c(c3)OCCO4)o2)CC1 | 0.011% (inactive)
CN(C)/C=N/c1nnc(-c2ccc3c(c2)OCCO3)o1 | 0.022% (inactive)
O=S(=O)(Nc1nnc(-c2ccc3c(c2)OCCO3)o1)c1ccc(Cl)cc1 | -0.004% (inactive)
Cc1ccc2cc3c(NC(=O)Cc4ccco4)nn(C)c3nc2c1 | 0.407% (inactive)
Cc1ccc2cc3c(NC(=O)c4ccc(C)o4)nn(C)c3nc2c1 | 1.77% (inactive)
O=C(Nc1nnc(-c2ccccc2Cl)o1)C1CCCCC1 | 0.003% (inactive)
O=C(Nc1nnc(-c2ccc3c(c2)OCCO3)o1)C1CCC1 | 0.037% (inactive)
COc1ccc(-c2nnc(NC(C)=O)o2)cc1 | 0.028% (inactive)
O=C(Cc1ccc(-c2ccccc2)cc1)NC1CNC1 | 0.01% (inactive)
O=C(Nc1nnc(-c2ccc3c(c2)OCCO3)o1)C(F)(F)c1ccccc1 | -0.004% (inactive)
CN1CCC(C(=O)Nc2nnc(-c3ccc4c(c3)OCCO4)o2)CC1 | 0.02% (inactive)
Cc1ccc2cc3c(NC(=O)c4ccccn4)nn(C)c3nc2c1 | -0.001% (inactive)

test system: V. cholerae BH1578 lux luminescence induction, 6 h; assay: as above; details: not given

SMILES | AC40
O=C(Cc1ccc(-c2ccccc2)cc1)NC1COC1 | > 100 µM (inactive)
Cc1cc(F)c2cc3c(NC(=O)c4ccco4)nn(C)c3nc2c1 | > 100 µM (inactive)
CC(C)(C)COC(=O)CSc1n[nH]c(=O)[nH]c1=O | 12.5 µM
Cc1cc2nc3c(cc2cc1F)c(NC(=O)c1ccco1)nn3C | 37.2 µM
CCc1ccc2cc3c(NC(=O)c4ccco4)nn(C)c3nc2c1 | 58.9 µM
O=C(Cc1ccc(-c2ccccc2)cc1)N[C@@H]1CCOC1 (racemic) | 96.9 µM
O=c1ncn(-c2cccc(F)c2)c2ccccc12 | 33.8 µM
Cc1ccc2cc3c(NC(=O)c4cccs4)nn(C)c3nc2c1 | > 80 µM (inactive)
O=C(Nc1nnc(-c2cccnc2)o1)C1CCCCC1 | > 100 µM (inactive)
CCCCCCCCCC(=O)[C@H](O)CC (racemic) | 14.1 µM
O=C(Nc1nnc(-c2ccc3c(c2)OCCO3)o1)C1CCCCCC1 | > 100 µM (inactive)
O=C(Nc1nnc(-c2ccc3c(c2)OCCO3)o1)C1CCCCC1 | 7.31 µM and 2.33 µM
O=C(Cc1ccc(-c2ccccc2)cc1)NC1CCC1 | 1.26 µM
Cn1nc(NC(=O)c2ccco2)c2ccccc21 | > 100 µM (inactive)
COc1ccccc1-c1nnc(NC(=O)C2CCCCC2)o1 | > 100 µM (inactive)
Cn1nc(NC(=O)c2ccco2)c2cc3ccccc3nc21 | 5.43 µM
Cc1ccc2cc3c(NC(=O)c4ccco4)nn(C)c3nc2c1 | 11.6 µM and 16.6 µM
O=c1ncn(-c2cc(Cl)cc(Cl)c2)c2ccccc12 | 4.71 µM
CCn1nnnc1NCc1ccc(C(C)C)cc1 | 0.563 µM
Cc1cccc(-n2cnc(=O)c3ccccc32)c1 | 75.9 µM
Cn1nc(NC(=O)c2ccco2)c2cccnc21 | 22.2 µM
COc1ccc2cc3c(NC(=O)c4ccco4)nn(C)c3nc2c1 | 3.82 µM
Cc1cc2cc3c(NC(=O)c4ccco4)nn(C)c3nc2cc1C | 42.4 µM
O=c1ncn(-c2ccccc2)c2ccccc12 | > 80 µM (inactive)
O=c1ncn(-c2cccc(Cl)c2)c2ccccc12 | 14.1 µM and 31 µM
CCCCCCCCCC(=O)C(O)CC (stereo not drawn) | 5.27 µM
Cc1cc(F)cc2nc3c(cc12)c(NC(=O)c1ccco1)nn3C | 89.6 µM
